Measured values reported in ChEMBL document CHEMBL3525955, “Glucuronidation of the red clover isoflavone irilone by liver microsomes from different species and human UDP-glucuronosyltransferases” (Drug Metab Dispos, 2011).

How the values were obtained:
Assay type in all cases: ADME
[1] = target: T1, UDP-glucuronosyltransferase 1A8 (Homo sapiens, UniProt Q9HAW9); assay: Activity of human recombinant UGT1A8 assessed as intrinsic clearance incubated for 5 mins prior to UDPGA addition measured after 90 mins; conditions: recombinant enzyme, 1.5 h
T1 sequence (Q9HAW9 whole entry): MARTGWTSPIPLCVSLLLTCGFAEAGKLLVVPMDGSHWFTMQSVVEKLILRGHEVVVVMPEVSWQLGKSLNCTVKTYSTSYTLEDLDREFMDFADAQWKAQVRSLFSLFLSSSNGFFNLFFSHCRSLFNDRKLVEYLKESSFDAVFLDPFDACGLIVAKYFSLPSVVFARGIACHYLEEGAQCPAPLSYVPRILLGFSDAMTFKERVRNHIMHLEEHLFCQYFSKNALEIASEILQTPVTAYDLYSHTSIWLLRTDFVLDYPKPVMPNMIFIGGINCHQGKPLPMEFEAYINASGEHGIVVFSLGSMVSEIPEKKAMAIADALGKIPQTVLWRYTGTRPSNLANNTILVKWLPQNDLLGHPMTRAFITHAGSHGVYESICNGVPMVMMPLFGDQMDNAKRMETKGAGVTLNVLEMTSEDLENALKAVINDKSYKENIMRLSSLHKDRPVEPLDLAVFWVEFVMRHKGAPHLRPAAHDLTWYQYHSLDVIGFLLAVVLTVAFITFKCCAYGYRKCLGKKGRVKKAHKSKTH

[2] = target: T2, UDP-glucuronosyltransferase 1A1 (Homo sapiens, UniProt P22309); assay: Substrate inhibition of human recombinant UGT1A1 assessed as IRI-O-5-monoglucuronide formation incubated for 5 mins prior to UDPGA addition measured after 90 mins by Eadie-Hoftsee plot analysis
T2 sequence (P22309 whole entry): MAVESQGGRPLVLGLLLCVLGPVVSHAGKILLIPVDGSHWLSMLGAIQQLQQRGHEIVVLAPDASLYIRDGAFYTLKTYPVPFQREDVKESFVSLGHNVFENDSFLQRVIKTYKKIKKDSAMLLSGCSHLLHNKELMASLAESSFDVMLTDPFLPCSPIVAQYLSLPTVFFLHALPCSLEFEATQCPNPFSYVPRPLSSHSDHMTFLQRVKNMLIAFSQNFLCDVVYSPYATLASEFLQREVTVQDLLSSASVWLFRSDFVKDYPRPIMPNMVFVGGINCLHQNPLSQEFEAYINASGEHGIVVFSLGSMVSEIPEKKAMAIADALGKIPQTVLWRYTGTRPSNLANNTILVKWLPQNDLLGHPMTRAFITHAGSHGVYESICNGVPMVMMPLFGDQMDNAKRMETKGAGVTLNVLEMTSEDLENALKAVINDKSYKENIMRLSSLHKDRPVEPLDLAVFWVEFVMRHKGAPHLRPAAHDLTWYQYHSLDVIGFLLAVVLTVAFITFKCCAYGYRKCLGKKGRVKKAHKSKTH

Liver microsome [3] = assay: Intrinsic clearance in Sprague-Dawley rat liver microsomes incubated for 5 mins prior to UDPGA addition measured after 90 mins; conditions: 1.5 h
Liver microsome [4] = assay: Drug metabolism in human liver microsomes assessed as substrate inhibition of IRI-O-4'-monoglucuronide formation incubated for 5 mins prior to UDPGA addition measured after 90 mins by Eadie-Hoftsee plot analysis
[5] = target: T3, UDP-glucuronosyltransferase 1A9 (Homo sapiens, UniProt O60656); assay: Drug metabolism assessed as human recombinant UGT1A9-mediated irilone-O-5-monoglucuronide formation incubated for 5 mins prior to UDPGA addition measured after 90 mins by HPLC-DAD analysis; conditions: recombinant enzyme, 1.5 h
T3 sequence (O60656 whole entry): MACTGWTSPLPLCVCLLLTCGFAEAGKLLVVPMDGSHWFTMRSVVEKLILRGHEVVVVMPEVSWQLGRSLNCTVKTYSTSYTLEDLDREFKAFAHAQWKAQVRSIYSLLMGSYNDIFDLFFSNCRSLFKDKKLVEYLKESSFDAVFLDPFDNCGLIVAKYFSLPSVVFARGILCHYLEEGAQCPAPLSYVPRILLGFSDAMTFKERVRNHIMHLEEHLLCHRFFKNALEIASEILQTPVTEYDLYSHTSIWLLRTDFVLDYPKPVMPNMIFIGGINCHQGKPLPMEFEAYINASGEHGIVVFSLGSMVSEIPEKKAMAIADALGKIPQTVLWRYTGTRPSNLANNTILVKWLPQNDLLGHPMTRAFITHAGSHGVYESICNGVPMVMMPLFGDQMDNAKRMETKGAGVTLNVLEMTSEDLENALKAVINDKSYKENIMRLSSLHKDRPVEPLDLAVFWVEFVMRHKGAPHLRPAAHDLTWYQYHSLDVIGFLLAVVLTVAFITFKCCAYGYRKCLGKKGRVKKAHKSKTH

Liver microsome [6] = assay: Drug metabolism in Sprague-Dawley rat liver microsomes assessed as IRI-O-5-monoglucuronide formation incubated for 5 mins prior to UDPGA addition measured after 90 mins by Eadie-Hoftsee plot analysis; conditions: 1.5 h
[7] = target: T4, UDP-glucuronosyltransferase 1A10 (Homo sapiens, UniProt Q9HAW8); assay: Drug metabolism assessed as human recombinant UGT1A10-mediated irilone-O-4'-monoglucuronide formation incubated for 5 mins prior to UDPGA addition measured after 90 mins by HPLC-DAD analysis; conditions: recombinant enzyme, 1.5 h
T4 sequence (Q9HAW8 whole entry): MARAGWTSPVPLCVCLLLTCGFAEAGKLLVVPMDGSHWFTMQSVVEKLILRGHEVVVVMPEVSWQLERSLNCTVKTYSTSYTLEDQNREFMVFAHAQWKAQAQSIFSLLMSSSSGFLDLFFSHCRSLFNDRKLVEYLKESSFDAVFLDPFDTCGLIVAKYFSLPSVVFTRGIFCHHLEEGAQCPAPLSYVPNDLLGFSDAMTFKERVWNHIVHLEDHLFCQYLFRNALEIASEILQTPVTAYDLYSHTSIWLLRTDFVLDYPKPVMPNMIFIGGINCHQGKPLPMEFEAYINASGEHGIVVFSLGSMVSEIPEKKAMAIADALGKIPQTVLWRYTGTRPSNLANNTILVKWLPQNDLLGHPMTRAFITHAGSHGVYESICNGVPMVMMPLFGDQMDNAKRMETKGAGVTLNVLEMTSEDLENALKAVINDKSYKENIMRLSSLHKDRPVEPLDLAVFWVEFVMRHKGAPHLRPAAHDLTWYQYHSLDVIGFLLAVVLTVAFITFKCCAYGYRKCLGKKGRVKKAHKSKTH

CL [1]: 20200 µL/min/mg | Ki [2]: 8.5 µM | CLH (Liver microsome [3]): 51000 µL/min/mg | Ki (Liver microsome [4]): 50.9 µM | Drug metabolism [5]: metabolite_detected | Km (Liver microsome [6]): 34 µM | Vmax (Liver microsome [6]): 1.37 nmol/mg/min | Drug metabolism [7]: metabolite_detected
Compound: O=c1c(-c2ccc(O)cc2)coc2cc3c(c(O)c12)OCO3
